66 compounds from patent US11759461B2, “Small molecule inhibitors of cancer stem cells and mesenchymal cancer types” (The Scripps Research Institute, priority 2017, dated 2023) can be followed below.

For the test, the system named is FOXC2-expressing HMLER cells. Briefly: Cell Titer Glo viability of FOXC2-HMLER cells (high throughput screen and 10-point response). Format: cell-based. The settings on record: Homo sapiens; scored relative to parent compound 2; 72 hours; read-out: Activity Score, inhibition of FOXC2-expressing HMLER cells by Formula II compounds. The protocol: For high throughput screening, FOXC2-HMLER and HMLER cells were plated at 10^3 cells per well in white 384-well plates in 50 μL of MEGM medium (Lonza). Cells were allowed to attach for one hour before compound was transferred to each well as a DMSO solution using a 100 nL pintool head affixed to a PerkinElmer FX instrument. After 72-hour incubation, 30 μL of a Cell Titer Glo solution (diluted 1:6 in water, Promega) was dispensed into each well and luminance values were recorded using an Envision plate reader. […] All other miniaturized, selective viability experiments were performed as above using the indicated growth medium.
More specifically, in the high throughput screening assay above, each cell line was plated at 1,000 cells per well in 384-well plates, treated for 72 hours with 2 μM of test compound, and the viability of each line was determined in parallel by Cell Titer Glo (Promega) luminance measurements.

SMILES strings stand for the structures.

On to `COc1ccc2cc(CNc3ccc(C)cc3)c(=O)n(CC(=O)Nc3ccc(C)cc3)c2c1` [Compound 2AY], for which the IC50 is greater than 20 µM.

Turning to `COc1ccc(NCc2cc3ccc(OC)cc3n(CC(=O)Nc3ccccc3)c2=O)cc1` [Compound 2AZ], the IC50 was greater than 20 µM.

In the case of `CCc1ccc(NCc2cc3cc4c(cc3n(CC(=O)Nc3c(C)cccc3C)c2=O)OCCO4)cc1` [Compound 2A], the IC50 is less than 1 µM.

For the compound `COc1ccc2cc(CNc3ccccc3)c(=O)n(CC(=O)Nc3ccc(C)cc3Cl)c2c1` [Compound 2BA], the IC50 is greater than 20 µM.

For the compound `COc1cccc(CNC(=O)Cn2c(=O)c(CNc3ccccc3)cc3ccc(OC)cc32)c1` [Compound 2BB], the IC50 is greater than 20 µM.

Regarding `COc1ccc2cc(CNc3ccccc3)c(=O)n(CC(=O)Nc3c(C)cc(C)cc3C)c2c1` [Compound 2BC], the IC50 was greater than 20 µM.

As for `COc1ccc(NCc2cc3cc(OC)c(OC)cc3n(CC(=O)Nc3ccc(C)cc3)c2=O)cc1` [Compound 2BD], the IC50 was greater than 20 µM.

With `COc1ccc2c(c1)cc(CNc1ccc(OC)c(OC)c1)c(=O)n2CC(=O)Nc1ccccc1C` [Compound 2BE], the IC50 was greater than 20 µM.

With `CC(=O)c1cccc(NC(=O)Cn2c(=O)c(CNc3ccc(C)cc3)cc3cc4c(cc32)OCCO4)c1` [Compound 2BF], the IC50 is greater than 20 µM.

For the compound `CCOC(=O)c1cccc(NC(=O)Cn2c(=O)c(CNc3ccccc3)cc3ccc(OC)cc32)c1` [Compound 2BG], the IC50 is greater than 20 µM.

As to `COc1ccc2cc(CNc3ccccc3)c(=O)n(CC(=O)Nc3ccc(F)cc3)c2c1` [Compound 2BH], the IC50 was greater than 20 µM.

On to `COc1ccc(CNC(=O)Cn2c(=O)c(CNc3ccccc3)cc3ccc(OC)cc32)cc1` [Compound 2BI], for which the IC50 is greater than 20 µM.

For the compound `COc1ccc2cc(CNc3ccc(C)cc3)c(=O)n(CC(=O)Nc3cc(C)cc(C)c3)c2c1` [Compound 2BJ], the IC50 was greater than 20 µM.

Turning to `COc1ccc(NCc2cc3ccc(OC)cc3n(CC(=O)Nc3ccc(F)cc3)c2=O)cc1` [Compound 2BK], the IC50 is greater than 20 µM.

On to `CCc1ccccc1NC(=O)Cn1c(=O)c(CNc2ccccc2)cc2ccc(OC)cc21` [Compound 2BL], for which the IC50 was greater than 20 µM.

Turning to `COc1ccc(NCc2cc3ccc(C)cc3n(CC(=O)Nc3cccc(C)c3)c2=O)cc1OC` [Compound 2BM], the IC50 was greater than 20 µM.

As to `CCc1ccc(NC(=O)Cn2c(=O)c(CNc3ccccc3)cc3ccc(OC)cc32)cc1` [Compound 2BN], the IC50 was greater than 20 µM.

Regarding `COc1ccc(NCc2cc3cc4c(cc3n(CC(=O)Nc3ccccc3C)c2=O)OCCO4)cc1` [Compound 2BO], the IC50 is greater than 20 µM.

Turning to `COc1ccc(NCc2cc3cc4c(cc3n(CC(=O)Nc3ccc(C)cc3)c2=O)OCCO4)cc1` [Compound 2BP], the IC50 was greater than 20 µM.

Consider `COc1ccc(NC(=O)Cn2c(=O)c(CNc3ccc(C)cc3)cc3cc(OC)c(OC)cc32)cc1` [Compound 2BQ], for which the IC50 was greater than 20 µM.

As for `COc1ccc2cc(CNc3ccccc3)c(=O)n(CC(=O)Nc3cccc(F)c3)c2c1` [Compound 2BR], the IC50 is greater than 20 µM.

Turning to `COc1ccc2cc(CNc3ccccc3)c(=O)n(CC(=O)Nc3cc(Cl)ccc3OC)c2c1` [Compound 2BS], the IC50 was greater than 20 µM.

For `CCc1ccc(NCc2cc3ccc(OC)cc3n(CC(=O)Nc3cccc(Cl)c3)c2=O)cc1` [Compound 2BT], the IC50 is greater than 20 µM.

Take `COc1cccc(NC(=O)Cn2c(=O)c(CNc3ccc(C)cc3)cc3cc(OC)c(OC)cc32)c1` [Compound 2BU]: the IC50 is greater than 20 µM.

In the case of `COc1ccc(NCc2cc3ccc(OC)cc3n(CC(=O)Nc3ccccc3C)c2=O)cc1` [Compound 2BV], the IC50 was greater than 20 µM.

Regarding `COc1ccc2cc(CNc3ccccc3)c(=O)n(CC(=O)Nc3ccc(Br)cc3)c2c1` [Compound 2BW], the IC50 was greater than 20 µM.

For the compound `COc1ccc2cc(CNc3ccccc3)c(=O)n(CC(=O)Nc3cccc(Cl)c3)c2c1` [Compound 2BX], the IC50 is greater than 20 µM.

Take `COc1cccc(NC(=O)Cn2c(=O)c(CNc3ccccc3)cc3cc4c(cc32)OCCO4)c1` [Compound 2BY]: the IC50 is greater than 20 µM.

`COc1ccc2cc(CNc3ccc(C)cc3)c(=O)n(CC(=O)Nc3cccc(C(F)(F)F)c3)c2c1` [Compound 2BZ]: the IC50 is greater than 20 µM.

Regarding `CCOc1ccccc1NC(=O)Cn1c(=O)c(CNc2ccc(CC)cc2)cc2ccc(OC)cc21` [Compound 2B], the IC50 is less than 1 µM.

In the case of `COc1ccc2cc(CNc3ccccc3)c(=O)n(CC(=O)Nc3ccc(Cl)cc3)c2c1` [Compound 2CA], the IC50 is greater than 20 µM.

For `COc1cc2cc(CNc3ccccc3)c(=O)n(CC(=O)Nc3ccc(C)cc3C)c2cc1OC` [Compound 2CB], the IC50 was greater than 20 µM.

For `COc1ccc2cc(CNc3ccccc3)c(=O)n(CC(=O)Nc3cc(Cl)ccc3C)c2c1` [Compound 2CC], the IC50 was greater than 20 µM.

With `Cc1ccc(NCc2cc3cc4c(cc3n(CC(=O)Nc3cc(C)ccc3C)c2=O)OCCO4)cc1` [Compound 2CD], the IC50 was greater than 20 µM.

For `COc1ccc2cc(CNc3ccc(C)cc3)c(=O)n(CC(=O)Nc3ccc4c(c3)OCCO4)c2c1` [Compound 2CE], the IC50 was greater than 20 µM.

As to `CCc1ccc(NCc2cc3cc(OC)c(OC)cc3n(CC(=O)Nc3ccccc3)c2=O)cc1` [Compound 2CF], the IC50 was greater than 20 µM.

Take `COc1cc2cc(CNc3ccccc3)c(=O)n(CC(=O)Nc3ccc(F)cc3)c2cc1OC` [Compound 2CG]: the IC50 is greater than 20 µM.

As to `CCc1cccc(NC(=O)Cn2c(=O)c(CNc3ccccc3)cc3ccc(OC)cc32)c1` [Compound 2CH], the IC50 is greater than 20 µM.

Consider `CCc1ccc(NCc2cc3cc4c(cc3n(CC(=O)Nc3ccc(CC)cc3)c2=O)OCCO4)cc1` [Compound 2CI], for which the IC50 was greater than 20 µM.

With `COc1cc2cc(CNc3ccc(C)cc3)c(=O)n(CC(=O)Nc3ccc(C(C)C)cc3)c2cc1OC` [Compound 2CJ], the IC50 is greater than 20 µM.

With `COc1ccc2cc(CNc3ccccc3)c(=O)n(CC(=O)Nc3ccc(C)c(C)c3)c2c1` [Compound 2CK], the IC50 was greater than 20 µM.

Regarding `CCc1ccc(NC(=O)Cn2c(=O)c(CNc3ccccc3)cc3cc(OC)c(OC)cc32)cc1` [Compound 2CL], the IC50 is greater than 20 µM.

In the case of `COc1ccc(OC)c(NC(=O)Cn2c(=O)c(CNc3ccccc3)cc3ccc(C)cc32)c1` [Compound 2CM], the IC50 is greater than 20 µM.

For `COc1cccc(NC(=O)Cn2c(=O)c(CNc3ccccc3)cc3cc(OC)c(OC)cc32)c1` [Compound 2CN], the IC50 was greater than 20 µM.

On to `COc1ccc2cc(CNc3ccccc3)c(=O)n(CC(=O)Nc3ccc(C)c(Cl)c3)c2c1` [Compound 2CO], for which the IC50 was greater than 20 µM.

Consider `CCc1ccc(NCc2cc3ccc(OC)cc3n(CC(=O)Nc3ccccc3C)c2=O)cc1` [Compound 2CP], for which the IC50 was greater than 20 µM.

For the compound `CCOc1ccc(NC(=O)Cn2c(=O)c(CNc3ccccc3)cc3ccc(C)cc32)cc1` [Compound 2CQ], the IC50 is greater than 20 µM.

Take `COc1ccc(NC(=O)Cn2c(=O)c(CNc3ccc(C)cc3)cc3cc4c(cc32)OCCO4)cc1` [Compound 2CR]: the IC50 was greater than 20 µM.

Turning to `COc1ccc2cc(CNc3ccccc3)c(=O)n(CC(=O)Nc3ccccc3OC)c2c1` [Compound 2CS], the IC50 is greater than 20 µM.

As to `CCc1ccc(NCc2cc3ccc(OC)cc3n(CC(=O)Nc3ccc(C)c(C)c3)c2=O)cc1` [Compound 2CT], the IC50 was greater than 20 µM.

In the case of `CCc1ccc(NC(=O)Cn2c(=O)c(CNc3ccc(C)cc3)cc3ccc(OC)cc32)cc1` [Compound 2CU], the IC50 is greater than 20 µM.

Take `CCOc1ccc(NC(=O)Cn2c(=O)c(CNc3ccc(OC)cc3)cc3ccc(OC)cc32)cc1` [Compound 2CV]: the IC50 is greater than 20 µM.

On to `CCc1ccc(NCc2cc3ccc(OC)cc3n(CC(=O)Nc3ccc(CC)cc3)c2=O)cc1` [Compound 2CW], for which the IC50 was greater than 20 µM.

For `COc1ccc2cc(CNc3ccccc3)c(=O)n(CC(=O)Nc3ccc(C(C)=O)cc3)c2c1` [Compound 2CX], the IC50 is greater than 20 µM.

Turning to `COc1cc(NC(=O)Cn2c(=O)c(CNc3ccc(C)cc3)cc3ccc(OC)cc32)cc(OC)c1` [Compound 2CY], the IC50 is greater than 20 µM.

Consider `COc1cc2cc(CNc3ccccc3)c(=O)n(CC(=O)Nc3ccccc3C)c2cc1OC` [Compound 2CZ], for which the IC50 is greater than 20 µM.

With `CCOC(=O)c1ccccc1NC(=O)Cn1c(=O)c(CNc2ccccc2)cc2ccc(OC)cc21` [Compound 2C], the IC50 is less than 1 µM.

In the case of `Cc1ccc(NCc2cc3cc4c(cc3n(CC(=O)Nc3ccccc3)c2=O)OCCO4)cc1` [Compound 2DA], the IC50 is greater than 20 µM.

Take `COc1ccc2cc(CNc3ccccc3)c(=O)n(CC(=O)Nc3ccccc3Cl)c2c1` [Compound 2DB]: the IC50 is greater than 20 µM.

As for `CC(=O)c1ccc(NC(=O)Cn2c(=O)c(CNc3ccc(C)cc3)cc3cc4c(cc32)OCCO4)cc1` [Compound 2DC], the IC50 was greater than 20 µM.

As to `COc1ccc2cc(CNc3ccccc3)c(=O)n(CC(=O)Nc3ccccc3F)c2c1` [Compound 2DD], the IC50 is greater than 20 µM.

Take `CCc1ccc(NCc2cc3cc(OC)c(OC)cc3n(CC(=O)Nc3cccc(C)c3)c2=O)cc1` [Compound 2DE]: the IC50 is greater than 20 µM.

Consider `COc1ccc2cc(CNc3ccc(C)cc3)c(=O)n(CC(=O)Nc3ccc(F)cc3F)c2c1` [Compound 2DF], for which the IC50 is greater than 20 µM.

Consider `Cc1ccc(NCc2cc3cc4c(cc3n(CC(=O)Nc3cccc(C)c3)c2=O)OCCO4)cc1` [Compound 2DG], for which the IC50 was greater than 20 µM.

With `COc1ccc(NC(=O)Cn2c(=O)c(CNc3ccccc3)cc3ccc(OC)cc32)cc1` [Compound 2DH], the IC50 was greater than 20 µM.

For `COc1cc2cc(CNc3ccc(C)cc3)c(=O)n(CC(=O)Nc3ccc(C)c(C)c3)c2cc1OC` [Compound 2DI], the IC50 was greater than 20 µM.
